The nature of data set [1]: method code SF, from DOI: 10.1016/s0223-5234(99)80097-x. Conditions: pH 7.5.
A short description of data set [2]: method code SF-HPLC, from DOI: 10.1016/j.apradiso.2007.04.014, PMID: 17574425. Conditions: pH 7.4.
Data set [3] in a line: method code SF-AS, from PMID: 3774812. Particulars: pH 4.0.
Data set [4] can be described thus: method code G, from Wang, L.; Li, H.; Wang, X.; Zhang, Z. (1993). Determination of aqueous solubilities and partition coefficients of substitutive ethylketone congeners by generator column. Huanjing Huaxue, 12(2)151-154.
Data set [5] is described as follows: method code SF-AS, from DOI: 10.1021/jm00296a014, PMID: 5418493.
Data set [6] is described as follows: method code SF-HPLC, from DOI: 10.1002/ps.2780280108.
Data set [7] in a line: from Afshan, A.; Jehangir, M.; Amin, W.; Mujahid, A. (2000). Study of various esters of ethylcysteine acid dimer as brain perfusion imaging agents and formulation into single vial kit for labelling with …. Conditions: pH 7.5.
A short description of data set [8]: method code SF-HPLC, from DOI: 10.1021/jm030477w, PMID: 15084119. Conditions: pH 7.4.
A short description of data set [9]: method code SF, from DOI: 10.1080/10826070801924857.
Data set [10] in a line: method code SF-HPLC, from DOI: 10.1021/jf0483669, PMID: 15913295. Conditions: pH 7.4.
Data set [11] is described as follows: method code SF-HPLC, from DOI: 10.1021/js950346l, PMID: 9109056.
The nature of data set [12]: from Nishimura, K.; Okajima, N.; Fujita, T.; Nakajima, M. (1982). Quantitative structure-activity studies of substituted benzylchrysanthemates. IV. Physicochemical properties and rate of progress of the ….
A short description of data set [13]: method code SF-HPLC, from DOI: 10.1002/ps.2780440103. Particulars: pH 2.0.
The nature of data set [14]: method code SF-AS, from PMID: 6540096. Particulars: pH 7.5.
The nature of data set [15]: method code SF, from DOI: 10.1023/a:1012119527214, PMID: 9453056. Particulars: pH 12.5.
The nature of data set [16]: from Comini, L.; Núñez Montoya, S.; Argüello, G.; Cabrera, J. (2006). Partition coefficient (log P) determination of anthraquinone derivatives isolated from Heterophyllaea pustulata Hook, f. (Rubiaceae). …. Conditions: pH 7.4.
A short description of data set [17]: method code SF-AS, from THAKUR, B.; Mehta, U.; TIPNIS, P. (1981). Ortho effect in partition coefficients of some o-benzyloxybenzamides. Indian J Pharm Sci, 43(6)224-226.
A short description of data set [18]: method code SF-AS, from DOI: 10.1248/cpb.28.3673.
Data set [19] is described as follows: method code SF-HPLC, from DOI: 10.1016/j.ejpb.2012.12.004, PMID: 23262162.
Experiment in data set [20]: not given
This is another data set of the same source.

Experiment in data set [21]: not given
The source holds these as a separate data set.

Data set [22] is described as follows: method code SF-AS, from DOI: 10.1128/jb.153.1.232-240.1983, PMID: 6294048.
The nature of data set [23]: method code SF-AS, from DOI: 10.1248/cpb.32.5003, PMID: 6534549.
The nature of data set [24]: method code SF-HPLC, from PMID: 1854437. Conditions: pH 7.4.
Experiment in data set [25]: not given
This is another data set of the same source.

Experiment in data set [26]: not given
The source holds these as a separate data set.

Data set [27] is described as follows: method code SF-AS, from DOI: 10.1023/a:1016392123137, PMID: 24272811.
The nature of data set [28]: method code SF-RC, from DOI: 10.1021/jm000079i, PMID: 10956218. Particulars: pH 7.4.
The nature of data set [29]: method code SF-HPLC, from DOI: 10.1006/pest.1998.2384.

Turning to `CCc1c(O)c(=O)ccn1CCOC(=O)c1ccccc1`, the logD in data set [1] amounted to 1.52.
Regarding `O=C(CCl)Nc1ccc2ncnc(Nc3cc(Cl)c(Cl)cc3F)c2c1`, in [2], the pH-dependent lipophilicity (logD) was determined as 4.12.
With `O=C(O)Cc1sc(-c2ccccc2)nc1-c1ccc(Cl)cc1`, in data set [3], the logD came out at 2.72.
In turn, `Cc1ccc(C(=O)CSc2ccccc2)cc1` returned a log partition coefficient (logP) in [4] of 2.7.
`CC(C(=O)O)(c1ccccc1)c1ccccc1` had a logP in data set [5] of 2.69.
Compound `COC(=O)c1c(C)[nH]c(-c2cccc(Cl)n2)c1C(=O)OC` returned a logP in [6] of 2.65.
Compound `CCCCOC(=O)[C@H](CS)NCCN[C@@H](CS)C(=O)OCCCC` gave a logD in [7] of 2.9.
With `FCCCNc1ccc(-c2cn3cc(I)ccc3n2)cc1`, the logD in data set [8] was determined as 4.6.
In [9], `CCCCCCOC(=O)OC[C@@H]1O[C@H](n2ccc(N)nc2=O)CS1` registered a logP of 1.57.
In turn, `C[C@H](C(=O)O)c1ccc(-c2ccccc2)c(F)c1` yielded a log distribution coefficient (logD) in data set [3] of 3.87.
In data set [10], `Oc1ccc([C@H]2COc3cc(O)ccc3C2)cc1` had a logD of 3.2.
`CN1C(C(=O)Nc2ccccn2)=C(O)c2ccccc2S1(=O)=O`: the logP in data set [11] stood at 1.86.
For `C=CCC1(C(=O)OC)C(C=C(C)C)C1(C)C` (stereo not given), in data set [12], the logP was found to be 4.89.
For `CSC(=NOC(=O)N(C)COC1OC(C(=O)O)C(O)C(O)C1O)C(=O)N(C)C` (stereo not given), the pH-dependent lipophilicity (logD) in data set [13] is -1.98.
In turn, `CN(C)C(=O)O[C@H]1N=C(c2ccccc2)c2cc(Cl)ccc2N(C)C1=O` returned a logD in [14] of 2.88.
`CCN(CC)CC(=O)Nc1c(C)cc(C)cc1C` gave a logD in data set [15] of 2.73.
`O=C(O)C1c2ccccc2Cc2ccccc21` registered a logP in [5] of 2.78.
In the case of `O=c1c(-c2ccc(O)cc2)coc2cc(O[C@@H]3O[C@H](CO)[C@@H](O)[C@H](O)[C@H]3O)ccc12`, the logD in data set [10] is 0.32.
As for `Cc1c(O)cc2c(c1O)C(=O)c1ccccc1C2=O`, the logD in [16] is 2.36.
In the case of `COC(=O)c1c(C)[nH]c(-c2ccc(Cl)cn2)c1C(=O)OC`, the logP in [6] was 2.7.
Take `Cc1c(O)c(=O)ccn1CCOC(=O)c1ccccc1`: in data set [1], the logD is 1.04.
As to `NC(=O)c1ccccc1OCc1ccc([N+](=O)[O-])cc1`, the logP in [17] stood at 1.73.
Consider `CCCN(CC)C(CC)C(=O)Nc1c(C)cccc1C` (stereo not given), for which the log distribution coefficient (logD) in [15] stood at 3.22.
Compound `Cc1ccc(COc2ccccc2C(N)=O)cc1` had a logP in data set [17] of 1.86.
Take `CO[C@@]1(NC(=O)C(C(=O)O)c2ccc(O)cc2)C(=O)N2C(C(=O)O)=C(CSc3nnnn3C)CO[C@@H]21` (stereo not given in full): in [18] (pH 2.0), the logD was -0.58.
For `Oc1ccc(/C=C/c2cc(O)cc(O)c2)cc1`, the logP in data set [19] was found to be 2.56.
With `Cc1cc2oc(=O)cc(C)c2cc1OCC(O)CO` (stereo not given), the logP is 0.36.
For the compound `O=C(NC1CCCCCC1)NS(=O)(=O)c1cnccc1Nc1cccc(C(F)(F)F)c1`, the logP in [20] worked out at 2.02.
In data set [21], `CC(C)N(CCC(CCN1CCCCC1)(C(N)=O)c1ccccc1Cl)C(C)C` (stereo not given) came in with a logP of 4.78.
`FCCNc1ccc(-c2cn3cc(I)ccc3n2)cc1` showed a logD in data set [8] of 4.41.
With `COc1c(C)c(O)cc2c1C(=O)c1ccccc1C2=O`, the logD in data set [16] turned out to be 2.83.
In the case of `CC(=O)OCC1=C(C(=O)O)N2C(=O)C(NC(=O)Cc3cc4ccccc4s3)C2SC1` (stereo not given), the logD in data set [22] (pH 3.0) amounted to 1.68.
In data set [13], `COC(=O)[C@H]1O[C@@H](Oc2ccc3ccc(=O)oc3c2)[C@H](O)[C@@H](O)[C@@H]1O` gave a log distribution coefficient (logD) of -1.08.
On to `O=C(Cc1ccccc1)Nc1ccccc1F`, for which the logP in data set [23] was found to be 2.62.
The compound `CCCCOC(=O)n1cnc(CSCCNC(=NC#N)NC)c1C` yielded a logD in [24] of 2.15.
Compound `CNS(=O)(=O)Cc1ccc2[nH]cc(CCN(C)C)c2c1` had a logP in data set [25] of 1.1.
With `O=C1CN=C(c2ccccc2Cl)c2cc([N+](=O)[O-])ccc2N1`, in [14], the logD stood at 2.5.
`CCCOC(=O)[C@H](CS)NCCN[C@@H](CS)C(=O)OCCC` gave a logD in [7] of 2.5.
For `CCCCCCOC(=O)n1cnc(C)c1CSCCNC(=NC#N)NC`, the log distribution coefficient (logD) in [24] came to 3.1.
As for `c1ccc2[nH]c(SCCC3CCCCC3)nc2c1`, the logP in data set [26] was found to be 4.5.
With `NC(=O)C(CCN1CCCCC1)c1ccccc1Cl` (stereo not given), the logP in [21] worked out at 2.46.
Compound `CC=CCOC(=O)[C@@H]1[C@@H](C=C(C)C)C1(C)C` displayed a lipophilicity (logP) in [12] of 5.09.
As for `Cc1ccc(SCC(=O)c2ccc(Cl)cc2)cc1`, the logP in data set [4] worked out at 3.43.
In [27] (pH 6.0), `Cc1ccc2c(N)nc(-c3ccccn3)cc2c1` came in with a logD of 3.04.
Compound `CN(C)c1ccccc1Sc1ccc(Cl)cc1N` displayed a logD in data set [28] of 3.55.
`CCCCCCN1CCN(Cc2ccc(Cl)nc2)C1=N[N+](=O)[O-]`: the logP in [29] was 2.2.
The compound `O=C(CCl)Nc1cc2c(Nc3cc(Cl)c(Cl)cc3F)ncnc2cc1OCCOCCOCCOCCOCCOCCF` showed a logD in data set [2] of 4.75.
For the compound `O=C(Cc1ccccc1)Nc1ccccc1O`, the lipophilicity (logP) in [23] is 2.4.
The compound `Cc1c(C)c2c(c(C)c1O)CCC(C)(C(=O)O)O2` (stereo not given) yielded a logP in data set [19] of 2.61.
With `COc1ccc(Sc2ccccc2N(C)C)c(N)c1`, in [28], the logD worked out at 2.83.
The compound `O=[N+]([O-])N=C1N(Cc2ccccc2)CCN1Cc1ccc(Cl)nc1` gave a logP in data set [29] of 1.49.
`Cc1cc(-c2ccc(N)c(C)c2)ccc1N` yielded a logD in data set [18] (pH 5.8) of 2.34.
On to `O=C(NCC(F)(F)F)NS(=O)(=O)c1cnccc1NC1CCCCCC1`, for which the logP in data set [20] was determined as 0.95.
The compound `Cc1ccc2ccc3ccc(C)nc3c2n1` came in with a logP in [27] of 2.46.
Compound `O=C(O)COC(=O)Cc1ccccc1Nc1c(Cl)cccc1Cl` came in with a logP in [11] of 2.7.
`Cc1cc(=O)oc2c(C)c(OCC(O)CCl)ccc12` (stereo not given) yielded a logP of 0.53.
In [25], `CN(C)CCN(Cc1ccccc1)c1ccccn1` had a logP of 2.65.
In turn, `c1ccc(Cc2nc3ccccc3[nH]2)cc1` had a log partition coefficient (logP) in data set [26] of 4.16.
`Cc1nnc(SCC2=C(C(=O)O)N3C(=O)[C@@H](NC(=O)Cn4cnnn4)[C@H]3SC2)s1` displayed a lipophilicity (logP) in data set [22] of -0.24.
`CCCCCCCCOC(=O)OC[C@@H]1O[C@H](n2ccc(N)nc2=O)CS1` returned a logP in [9] of 1.72.

For the origin of these results see the SangsterLogP compilation.
